{"source": "patent US10010560B2", "about": "“Small molecule HSP70 inhibitors” (THE TRUSTEES OF THE UNIVERSITY OF PENNSYLVANIA, priority 2014, dated 2018)", "key": {"LC3": {"system": "LC3", "assay": "Western blot for autophagy marker LC3", "assay_type": "cell-based, human", "conditions": "A875 melanoma cell line", "text": "(§1) FIGS. 4A-4L illustrate that PET-16 impairs proteostasis. […] There is a general absence of obvious nuclei in PET-16 treated tumor cells. […] FIGS. 4D and 4E are gels of whole-cell extracts (WCE) prepared from human melanoma A875 (D) or 451 Lu (E) cells treated with DMSO, PES or PET-16 that were immunoprecipitated using an anti-HSP70 antibody. The excised band of about 70 kDa shown in the Coomassie gel is HSP70, as confirmed by liquid chromatography—tandem mass spectrometry analysis. FIGS. 4F-4I are western blots of cell lines were treated with DMSO, PES or PET-16 for 24 h and immunoblotted for the indicated proteins. FIG. 4J are western blots of indicated melanomas pretreated with DMSO, PES or PET-16, followed by treatment with IL-6. Cell extracts were immunoblotted for the proteins indicated. Inhibition of IL-6 induced STAT3 and STAT1 phosphorylation by PET-16. FIG. 4K is a western blot analysis indicating altered processing of cathepsin L from the larger precursor form to the smaller mature form in the indicated cells following PET-16 treatment for 24 h. FIG. 4L is a western blot of the human melanoma 451 Lu cells treated with DMSO, PES or PET-16 for 24 h. Cells were harvested in 1% NP40-containing lysis buffer, fractionated into detergent-soluble and detergent-insoluble preparations, and assayed by western blot for ubiquitin. […]"}, "[1]": {"system": "primary melanocytes and nontransformed human fibroblasts (IMR90)", "assay": "Cellular ATP levels (AlamarBlue assay) in normal cells", "assay_type": "cell-based", "text": "FIGS. 5A-5F illustrates that PET-16 leads to loss of mitochondrial protein Cyclophilin D and impairs bioenergetics in tumor cells. FIGS. 5A-5D are western blots of HSP70, which is present at mitochondria of tumor H1299 cells but not in normal tissue, such as liver. The constitutively expressed 70 kDa family members, HSC70 and GRP75, are present in mitochondria of normal cells. Equal amounts of whole cell (WC)-, cytosolic (cyto)-, and mitochondrial (mito)-extracts prepared from cell lines H1299 (A, C) and MIA PaCa-2 (B) or normal (liver) cells (C, D) were examined by western blot analysis for the presence of the proteins indicated. […] Decreases of AlamarBlue® fluorescence, indicative of mitochondrial damage, are noted in PET-16-treated tumor cells (melanoma tumor cell line WM88 (-), melanoma tumor cell line WM3000 (×), melanoma tumor cell line WM852 (*), human melanoma 451 Lu cells (●), and melanoma tumor cell line WM989 (|), but not normal cells (nontransformed human fibroblasts (IMR90-♦) and primary melanocytes (▪)). Values are normalized to the vehicle-treated cells. Error bars represent standard deviation (s.d.) of four independent experiments."}, "[2]": {"system": "human melanoma (A875) cells", "assay": "Viability of A875 melanoma cells versus IMR90 fibroblasts", "assay_type": "cell-based", "conditions": "10 μM, 24 h, A875 vs IMR90", "method": "(§2) FIGS. 2A-2D illustrate the cytotoxicity of PET-16 to human tumor cells and its inhibition on E. coli growth. FIG. 2A is a line graph with data obtained from MTT assays of human melanoma cell lines treated with the indicated concentrations of PES or PET-16 for 72 h. The corresponding cell survival is normalized to vehicle (DMSO) treatment. Average and standard deviation (s.d.) from three independent experiments are shown. FIG. 2B are bar graphs of human melanoma (A875) cells and nontransformed human (IMR90) fibroblasts that were treated with DMSO, 10 μM PES or 10 μM PET-16 for 24 h. […] FIG. 2C is a line graph illustrating the growth of E. coli DH5α treated with different concentrations of PES or PET-16 for 6 h at 43° C. Error bars represent the s.d. of four independent experiments. FIG. 2D is a bar graph illustrating the growth of E. coli DH5α treated with DMSO, 30 μM PET-16 or 30 μM TPP for 6 h at 43° C. Error bars represent the s.d. of four independent experiments."}, "tumor cells": {"system": "tumor cells", "assay": "Electron microscopy analysis of treated tumor cells", "assay_type": "cell-based", "text": "as §1"}, "[3]": {"system": "human melanoma cell lines", "assay": "MTT assays of human melanoma cell lines", "assay_type": "cell-based", "conditions": "several melanoma cell lines, 72 h", "method": "as §2\nMTT assays of human melanoma cell lines, as indicated, treated with the indicated concentration of PET-16 for 72 hours. The corresponding cell survival is normalized to vehicle (DMSO) treatment. Average and standard deviation (s.d.) from three independent experiments are shown."}, "BRAF(V600E)": {"system": "BRAF(V600E)", "assay": "Western blot of client proteins in soluble and detergent-insoluble fractions", "assay_type": "cell-based", "conditions": "melanoma tumor cells, soluble fraction", "method": "PET-16 promotes the loss of HSP90/HSP70 client proteins from the soluble fraction and the accumulation of some of these client proteins in the protein detergent-insoluble cellular fraction. Human melanoma cell lines (451 Lu, 1205 Lu and WM852) and mouse melanoma cell line (Yumm), as indicated, were treated with DMSO, PES or PET-16 for 24 hours. Cells were fractionated into detergent-soluble and detergent-insoluble preparations and assayed by Western blot (WB) analysis for the proteins indicated. […] The expression of many of these proteins is reduced in the soluble cell fractions, and often the abundance increases in the detergent insoluble fractions. This is indicative of loss of function of the client proteins.\nWestern blotting, immunoprecipitations and B-PES pull down assays were performed as described in Leu 2009 and Leu 2011. Preparation of biotin-conjugated PES was described in Leu 2009 and Leu 2011; Balaburski, 2013. Liquid chromatography-tandem mass spectrometry was performed by the Genomics Institute and Abramson Cancer Center Proteomics Core Facility at the Perelman School of Medicine, University of Pennsylvania. Electron microscopy (EM) and EM imaging were performed by The Electron Microscopy Resource Laboratory, Biomedical Research Core Facilities, at the Perelman School of Medicine, University of Pennsylvania."}}}
{"smiles": "C(#C[P+](c1ccccc1)(c1ccccc1)c1ccccc1)c1ccccc1.[Br-]", "note": "[PET-16, triphenyl(phenylethynyl)phosphonium bromide]", "values": [{"measurement": "autophagy marker processed LC3II", "setting": "LC3", "value": "increase"}, {"measurement": "total ATP levels", "setting": "[1]", "value": "no decrease"}, {"measurement": "cytotoxicity tumor versus nontransformed cells", "setting": "[2]", "value": "preferentially cytotoxic for tumor cells"}, {"measurement": "autophagy and proteostasis by EM", "setting": "tumor cells", "value": "altered autophagy and impaired proteostasis"}, {"measurement": "IC50", "setting": "[3]", "value": "500 to 1500", "unit": "nM"}, {"measurement": "BRAF(V600E) protein abundance", "setting": "BRAF(V600E)", "value": "reduction"}]}
